Consider six molecules from patent US20190117716A1, “FATTY ACID COMPOSITION AND PHARMACEUTICAL PREPARATION AND APPLICATION THEREOF” (priority 2011, published 2019).

Each structure is given as a SMILES string.

A short description of this experiment: single fatty acids used alone (inventor's research). As to conditions: any one fatty acid used alone, compared with the combination.

Regarding `CCCCCCCC/C=C\CCCCCCCC(=O)O` [oleic acid], the “curative effect when used alone” value was “relatively unobvious”. For the molecule `CCCCCCCCCCCCCCCCCC(=O)O` [stearic acid], the “curative effect when used alone” value is given as “relatively unobvious”. As for `CCCCCCCCCCCCCCCCCCCC(=O)O` [arachidic acid], the entry is “relatively unobvious”; as for `CCCCCCCCCCCCCCCC(=O)O` [palmitic acid], “relatively unobvious”. `CCCCCC/C=C\CCCCCCCC(=O)O` [palmitoleic acid]: the “curative effect when used alone” value is “relatively unobvious”. In the case of `CCCCC/C=C\C/C=C\CCCCCCCC(=O)O` [linoleic acid], the “curative effect when used alone” value is recorded as “relatively unobvious”.
